Article PMC9862034, “Novel Antioxidant Peptides from Pearl Shell Meat Hydrolysate and Their Antioxidant Activity Mechanism” (Molecules, 2023)
Converted amounts (≈) assume the structure as drawn. Where two headings read alike, the source gives them in different places. No end group written: not given here.

Tests used:
HepG2 cells [1] = assay type: cell-based
Procedure: HepG2 cells were seeded in 96-well plates (1 × 10^4 cells/well) and cultured for 48 h. To the AAPH damage group, we added 150 µL of fresh medium containing AAPH (final concentration 0.025–25 mM), and to the control group, we added fresh medium without AAPH. After culturing for 24 h, cell viability was determined by the MTT method. HepG2 cells were seeded in 96-well plates (1 × 10^4 cells/well) and cultured for 24 h. To the sample treated group, we added 150 µL of fresh medium containing samples (0.025–0.2 mg/mL). To the control group and AAPH damage group, we added fresh medium without samples. After treating for 24 h, to the sample treated group and AAPH damage group, we added 50 µL of fresh medium containing AAPH (final concentrations of 0.25 and 10 mM). After culturing for 24 h, cell viability was determined.

HepG2 cells [2] = test: cells; conditions: for EC50 (cellular antioxidant activity): 1 h
Procedure: Obtained from National Collection of Authenticated Cell Cultural (Shanghai, China), HepG2 cells between 20 and 35 passages were grown in medium (DMEM supplemented with 10% fetal bovine serum, 1% antibiotic–antimycotic solution) in a 5% CO2 incubator at 37 °C.
Cellular antioxidant activity (CAA) was determined according to the method of Wolfe et al.. HepG2 cells were seeded in 96-well plates (6 × 10^4 cells/well) and cultured for 24 h. DCFH-DA working solution (50 µL, 50 µM) and 50 µL of medium with sample (0.005–0.1 mg/mL) were added in the sample treated group. DCFH-DA working solution (50 µL, 50 µM) and sterile water (50 µL) were added to the control group and the blank group. After incubated for 1 h, the cells were washed with PBS. Then, AAPH working solution (100 µL, […]) was added to the sample treated group and the control group, and fresh medium was added to the blank group. Fluorescence values were determined every 5 min for 1 h at an excitation wavelength of 485 nm and a determination wavelength of 528 nm. […] The CAA unit was calculated by the area of fluorescence curve (AUC), as shown in Equation (3). […] The Trolox equivalent (TEAC µM TE/g peptides) was calculated to represent the CAA value. (3) CAA=[1−(AUCt−AUCo)/(AUCc−AUCo)]×100 where AUCt, AUCc, and AUCo were the fluorescence curve area of the test sample, the control, and the blank group, respectively.

HepG2 cells [3] = test system: HepG2 cells; set-up: method as in 2 sources, ref 23 = [23]; PMID 28764069; doi:10.1016/j.foodchem.2017.05.144; 23. Liang R. Zhang Z. Lin S. Effects of pulsed electric field on intracellular antioxidant activity and antioxidant enzyme regulating capacities of pine nut ( Pinus koraiensis ) peptide QDHCH in HepG2 ||| ref 24 = [24]; PMID 29195889; doi:10.1016/j.foodres.2016.10.023; 24. Wang L. Ding L. Yu Z. Zhang T. Ma S. Liu J. Intracellular ROS scavenging and antioxidant enzyme regulating capacities of corn gluten meal-derived antioxidant peptides in HepG2 cells Food Res. Int.; conditions: related report, pine nut peptide; cited from earlier work
Description: The principle of CAA is that intracellular lipase degrades the fluorescent probe DCFH-DA to DCFH, which is oxidized to fluorescent DCF by intracellular free radicals under AAPH induction, and the antioxidant peptide can protect the probe from oxidation. […] In related reports, ...

Compound | cell viability, 50% cell viability model (HepG2 cells [1]; 24 h, 0.2 mg/mL) | cell viability, 80% cell viability model (HepG2 cells [1]; 24 h, 0.2 mg/mL) | EC50 (cellular antioxidant activity) (HepG2 cells [2]) | further results
N[C@@H](CCC(=O)N[C@@H](CS)C(=O)NCC(=O)O)C(=O)O [GSH, Glutathione, reference compound] | – | – | – | cell viability, 50% cell viability model (HepG2 cells [1]; HepG2, AAPH-induced damage (0.25 mM as printed), sample 0.2 mg/mL 24 h then AAPH 24 h, MTT, AAPH damage group 49.51%): 57.60%; cell viability, 80% cell viability model (HepG2 cells [1]; HepG2, AAPH-induced damage (10 mM [sic]), sample 0.2 mg/mL 24 h then AAPH 24 h, MTT, AAPH damage group 79.41%): 92.08%; CAA Value (HepG2 cells [2]; HepG2, Trolox equivalent, Trolox as standard antioxidant): 4.593 mM TE/g Peptide; EC50 (HepG2 cells [2]; Homo sapiens, HepG2, 1 h, read-out: EC50 (cellular antioxidant activity)): 30 µg/mL (≈ 97.6 µM)
GGSIT [GGSIT] | 66.35% | 96.06% | 0.073 mg/mL | –
GGSLT [GGSLT] | 68.25% | – | 0.064 mg/mL | –
NSVAA [NSVAA] | 70.55% | 100.09% | 0.095 mg/mL | –
QDHCH [pine nut peptide of a related report] | – | – | – | EC50 value (cellular antioxidant activity) (HepG2 cells [3]): 0.13 mg/mL
SGTAV [SGTAV] | 73.61% | 107.43% | 0.009 mg/mL | –
SPSSS [SPSSS] | 73.52% | 101.09% | 0.027 mg/mL | –
TGVAS [TGVAS] | 64.69% | – | 0.037 mg/mL | –
